The target in one experiment is CK1ε (Homo sapiens (Human), UniProt P49674). The experiment is described as follows: CK1ε kinase assay (Caliper LABCHIP electrophoretic separation of fluoresceinated peptide substrate and product). The class given is biochemical. As to conditions: 200 pM CK1ε, 50 μM ATP, 1.5 μM peptide substrate, 22 hours at room temperature; read-out: CK1ε (IC50). In a few lines:
(§1)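 Reactions ran 22 hours at room temperature and were stopped with EDTA. Phosphorylated product and unphosphorylated substrate were then separated electrophoretically. Compounds were tested at eleven concentrations, and IC50 values came from non-linear regression.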

A further experiment has as its target CK1δ (Homo sapiens (Human), UniProt P48730). The experiment can be described thus: CK1δ kinase assay (Caliper LABCHIP electrophoretic separation of fluoresceinated peptide substrate and product). The class given is biochemical. As to conditions: 200 pM CK1δ, 50 μM ATP, 1.5 μM peptide substrate, 22 hours at room temperature; read-out: CK1δ (IC50). Put shortly: as §1

Sequence of CK1ε (P49674 whole entry): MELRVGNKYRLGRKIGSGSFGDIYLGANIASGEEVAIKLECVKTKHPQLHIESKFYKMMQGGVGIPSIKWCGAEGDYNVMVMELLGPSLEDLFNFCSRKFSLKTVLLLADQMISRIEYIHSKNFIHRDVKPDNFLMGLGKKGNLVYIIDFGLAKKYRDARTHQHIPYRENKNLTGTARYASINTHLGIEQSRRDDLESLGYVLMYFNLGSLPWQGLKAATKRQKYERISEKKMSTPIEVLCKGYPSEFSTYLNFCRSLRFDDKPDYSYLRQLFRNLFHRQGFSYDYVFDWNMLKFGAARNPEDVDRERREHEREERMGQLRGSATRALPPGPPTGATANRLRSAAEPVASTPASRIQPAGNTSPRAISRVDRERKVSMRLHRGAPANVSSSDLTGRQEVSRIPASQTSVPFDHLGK
Sequence of CK1δ (P48730 whole entry): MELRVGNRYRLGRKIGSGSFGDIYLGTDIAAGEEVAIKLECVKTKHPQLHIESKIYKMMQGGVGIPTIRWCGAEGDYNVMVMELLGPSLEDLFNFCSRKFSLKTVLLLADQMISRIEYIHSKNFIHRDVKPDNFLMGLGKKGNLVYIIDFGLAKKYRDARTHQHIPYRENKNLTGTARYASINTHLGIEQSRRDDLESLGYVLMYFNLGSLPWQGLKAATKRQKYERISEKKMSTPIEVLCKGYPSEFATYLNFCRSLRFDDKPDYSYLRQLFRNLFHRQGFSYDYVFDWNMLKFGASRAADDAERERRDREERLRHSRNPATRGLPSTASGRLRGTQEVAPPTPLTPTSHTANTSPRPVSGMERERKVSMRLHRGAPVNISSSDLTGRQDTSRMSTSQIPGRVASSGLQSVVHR

In the case of `NC(=O)c1c(-c2cccc(F)c2)nn2c1CN(C(=O)Nc1cc(F)c(F)c(F)c1)CC2` [Compound 70, 2-(3-Fluorophenyl)-N^5-(3,4,5-trifluorophenyl)-6,7-dihydropyrazolo[1,5-a]pyrazine-3,5(4H)-dicarboxamide], the IC50 on CK1ε and at CK1δ was 0.01 to 10 nM each time.

Regarding `COc1cccc(NC(=O)N2CCn3nc(-c4cccc(F)c4)c(C(N)=O)c3C2)c1` [Compound 73, 2-(3-Fluorophenyl)-N^5-(3-methoxyphenyl)-6,7-dihydropyrazolo[1,5-a]pyrazine-3,5(4H)-dicarboxamide], the IC50 at CK1ε and on CK1δ was 0.01 to 10 nM each time.

On to `NC(=O)c1c(-c2cccc(F)c2)nn2c1CN(C(=O)Nc1cccc(F)c1)CC2` [Compound 77, N^5,2-Bis(3-fluorophenyl)-6,7-dihydropyrazolo[1,5-a]pyrazine-3,5(4H)-dicarboxamide], for which the IC50 on CK1ε and at CK1δ was 0.01 to 10 nM each time.

Take `COc1cc(NC(=O)N2CCn3nc(-c4cccc(F)c4)c(C(N)=O)c3C2)ccc1C(F)(F)F` [Compound 78, 2-(3-Fluorophenyl)-N^5-(3-methoxy-4-(trifluoromethyl)phenyl)-6,7-dihydropyrazolo[1,5-a]pyrazine-3,5(4H)-dicarboxamide]: the IC50 on CK1ε and at CK1δ was 0.01 to 10 nM each time.

Take `CC12CC3CC(C)(C1)CC(NC(=O)N1CCn4nc(-c5cccc(F)c5)c(C(N)=O)c4C1)(C3)C2` [Compound 81, N^5-(3,5-Dimethyladamantan-1-yl)-2-(3-fluorophenyl)-6,7-dihydropyrazolo[1,5-a]pyrazine-3,5(4H)-dicarboxamide]: the IC50 on CK1ε and at CK1δ was 0.01 to 10 nM throughout.

For the compound `NC(=O)c1c(-c2cccc(F)c2)nn2c1CN(C(=O)Nc1ccnnc1)CC2` [Compound 82, 2-(3-Fluorophenyl)-N^5-(pyridazin-4-yl)-6,7-dihydropyrazolo[1,5-a]pyrazine-3,5(4H)-dicarboxamide], the IC50 at CK1ε and at CK1δ was 0.01 to 10 nM each time.

As for `NC(=O)c1c(-c2cccc(F)c2)nn2c1CN(C(=O)Nc1ccc(Cl)nc1)CC2` [Compound 85, N^5-(6-Chloropyridin-3-yl)-2-(3-fluorophenyl)-6,7-dihydropyrazolo[1,5-a]pyrazine-3,5(4H)-dicarboxamide], the IC50 on CK1ε and at CK1δ was 0.01 to 10 nM throughout.

For the compound `NC(=O)c1c(-c2cccc(F)c2)nn2c1CN(C(=O)NC13CC4CC(O)(CC(F)(C4)C1)C3)CC2` (centres unmarked) [Compound 94, N^5-(3-Fluoro-5-hydroxyadamantan-1-yl)-2-(3-fluorophenyl)-6,7-dihydropyrazolo[1,5-a]pyrazine-3,5(4H)-dicarboxamide], the IC50 at CK1ε and at CK1δ was 0.01 to 10 nM throughout.

As for `CC(C)(C)C(=O)N1CCC(NC(=O)N2CCn3nc(-c4cccc(F)c4)c(C(N)=O)c3C2)CC1` [Compound 98, 2-(3-Fluorophenyl)-N^5-(1-pivaloylpiperidin-4-yl)-6,7-dihydropyrazolo[1,5-a]pyrazine-3,5(4H)-dicarboxamide], the IC50 on CK1ε and on CK1δ was 0.01 to 10 nM each time.

Regarding `COC(=O)N1CCC(NC(=O)N2CCn3nc(-c4cccc(F)c4)c(C(N)=O)c3C2)CC1` [Compound 99, Methyl 4-(3-carbamoyl-2-(3-fluorophenyl)-4,5,6,7-tetrahydropyrazolo[1,5-a]pyrazine-5-carboxamido)piperidine-1-carboxylate], the IC50 on CK1ε and at CK1δ was 0.01 to 10 nM in each case.

Consider `CC(C)OC(=O)N1CCC(NC(=O)N2CCn3nc(-c4cccc(F)c4)c(C(N)=O)c3C2)CC1` [Compound 100, Isopropyl 4-(3-carbamoyl-2-(3-fluorophenyl)-4,5,6,7-tetrahydropyrazolo[1,5-a]pyrazine-5-carboxamido)piperidine-1-carboxylate], for which the IC50 at CK1ε and on CK1δ was 0.01 to 10 nM in each case.

With `CC(C)(OC(=O)N1CCC(NC(=O)N2CCn3nc(-c4cccc(F)c4)c(C(N)=O)c3C2)CC1)C(F)(F)F` [Compound 101, 1,1,1-Trifluoro-2-methylpropan-2-yl 4-(3-carbamoyl-2-(3-fluorophenyl)-4,5,6,7-tetrahydropyrazolo[1,5-a]pyrazine-5-carboxamido)piperidine-1-carboxylate], the IC50 on CK1ε and at CK1δ was 0.01 to 10 nM throughout.

`NC(=O)c1c(-c2cccc(F)c2)nn2c1CN(C(=O)NC1CCN(CCC(F)(F)F)CC1)CC2` [Compound 103, 2-(3-Fluorophenyl)-N^5-(1-(3,3,3-trifluoropropyl)piperidin-4-yl)-6,7-dihydropyrazolo[1,5-a]pyrazine-3,5(4H)-dicarboxamide]: the results for the IC50 on CK1ε and at CK1δ were 10 to 100 nM and 0.01 to 10 nM, respectively.

As for `COc1cccc(-c2nn3c(c2C(N)=O)CN(C(=O)NC(C)(C)C)CC3)c1` [Compound 109, N^5-(tert-Butyl)-2-(3-methoxyphenyl)-6,7-dihydropyrazolo[1,5-a]pyrazine-3,5(4H)-dicarboxamide], the IC50 on CK1ε and on CK1δ was 0.01 to 10 nM each time.

As to `CC(C)(C)NC(=O)N1CCn2nc(-c3cncc(F)c3)c(C(N)=O)c2C1` [Compound 113, N^5-(tert-Butyl)-2-(5-fluoropyridin-3-yl)-6,7-dihydropyrazolo[1,5-a]pyrazine-3,5(4H)-dicarboxamide], the IC50 (in general, the concentration needed to halve the response being measured) on CK1ε was in the range of 100 to 2000 nM; on CK1δ, 10 to 100 nM.

As for `CC(C)(C)NC(=O)N1CCn2nc(-c3cc(Cl)cc(Cl)c3)c(C(N)=O)c2C1` [Compound 117, N^5-(tert-Butyl)-2-(3,5-dichlorophenyl)-6,7-dihydropyrazolo[1,5-a]pyrazine-3,5(4H)-dicarboxamide], the IC50 at CK1ε and at CK1δ was 0.01 to 10 nM throughout.

In the case of `CC(C)(C)NC(=O)N1CCn2nc(-c3cnc4ccccc4c3)c(C(N)=O)c2C1` [Compound 119, N^5-(tert-Butyl)-2-(quinolin-3-yl)-6,7-dihydropyrazolo[1,5-a]pyrazine-3,5(4H)-dicarboxamide], the IC50 on CK1ε and on CK1δ was 0.01 to 10 nM throughout.

Regarding `CC(C)(C)NC(=O)N1CCn2nc(-c3ccc(F)cc3F)c(C(N)=O)c2C1` [Compound 124, N^5-(tert-Butyl)-2-(2,4-difluorophenyl)-6,7-dihydropyrazolo[1,5-a]pyrazine-3,5(4H)-dicarboxamide], the IC50 on CK1ε and at CK1δ was 100 to 2000 nM throughout.

For the compound `CC(C)(C)NC(=O)N1CCn2nc(-c3ccc(Cl)c(Cl)c3)c(C(N)=O)c2C1` [Compound 129, N^5-(tert-Butyl)-2-(3,4-dichlorophenyl)-6,7-dihydropyrazolo[1,5-a]pyrazine-3,5(4H)-dicarboxamide], the IC50 at CK1ε and at CK1δ was 0.01 to 10 nM in each case.

For `CC(C)(C)NC(=O)N1CCn2nc(-c3cncc(Cl)c3)c(C(N)=O)c2C1` [Compound 148, N^5-(tert-Butyl)-2-(5-chloropyridin-3-yl)-6,7-dihydropyrazolo[1,5-a]pyrazine-3,5(4H)-dicarboxamide], the IC50 on CK1ε and at CK1δ was 0.01 to 10 nM in each case.

As to `COc1cc(Cl)cc(-c2nn3c(c2C(N)=O)CN(C(=O)NC(C)(C)C)CC3)c1` [Compound 152, N^5-(tert-Butyl)-2-(3-chloro-5-methoxyphenyl)-6,7-dihydropyrazolo[1,5-a]pyrazine-3,5(4H)-dicarboxamide], the IC50 at CK1ε and on CK1δ was 0.01 to 10 nM in each case.

Regarding `NC(=O)c1c(-c2cccc(Cl)c2)nn2c1CN(C(=O)Nc1ccc(F)c(F)c1)CC2` [Compound 156, 2-(3-Chlorophenyl)-N^5-(3,4-difluorophenyl)-6,7-dihydropyrazolo[1,5-a]pyrazine-3,5(4H)-dicarboxamide], the IC50 on CK1ε and on CK1δ was 0.01 to 10 nM throughout.

With `NC(=O)c1c(-c2cccc(Cl)c2)nn2c1CN(C(=O)Nc1ccc(F)cc1)CC2` [Compound 157, 2-(3-Chlorophenyl)-N^5-(4-fluorophenyl)-6,7-dihydropyrazolo[1,5-a]pyrazine-3,5(4H)-dicarboxamide], the IC50 on CK1ε and on CK1δ was 0.01 to 10 nM in each case.

Regarding `N#Cc1cccc(NC(=O)N2CCn3nc(-c4cccc(Cl)c4)c(C(N)=O)c3C2)c1` [Compound 161, 2-(3-Chlorophenyl)-N^5-(3-cyanophenyl)-6,7-dihydropyrazolo[1,5-a] pyrazine-3,5(4H)-dicarboxamide], the IC50 on CK1ε and at CK1δ was 0.01 to 10 nM in each case.

With `NC(=O)c1c(-c2cccc(Cl)c2)nn2c1CN(C(=O)Nc1ccc(Cl)c(Cl)c1)CC2` [Compound 164, 2-(3-Chlorophenyl)-N^5-(3,4-dichlorophenyl)-6,7-dihydropyrazolo[1,5-a] pyrazine-3,5(4H)-dicarboxamide], the IC50 on CK1ε and at CK1δ was 0.01 to 10 nM in each case.

Consider `NC(=O)c1c(-c2cccc(Cl)c2)nn2c1CN(C(=O)Nc1cccc(F)c1)CC2` [Compound 167, 2-(3-Chlorophenyl)-N^5-(3-fluorophenyl)-6,7-dihydropyrazolo[1,5-a] pyrazine-3,5(4H)-dicarboxamide], for which the IC50 on CK1ε and on CK1δ was 0.01 to 10 nM throughout.

Regarding `NC(=O)c1c(-c2cccc(Cl)c2)nn2c1CN(C(=O)Nc1cc(F)cc(F)c1)CC2` [Compound 169, 2-(3-Chlorophenyl)-N^5-(3,5-difluorophenyl)-6,7-dihydropyrazolo[1,5-a] pyrazine-3,5(4H)-dicarboxamide], the IC50 on CK1ε and on CK1δ was 0.01 to 10 nM in each case.

For the compound `COc1cccc(NC(=O)N2CCn3nc(-c4cccc(Cl)c4)c(C(N)=O)c3C2)c1` [Compound 170, 2-(3-Chlorophenyl)-N^5-(3-methoxyphenyl)-6,7-dihydropyrazolo[1,5-a] pyrazine-3,5(4H)-dicarboxamide], the IC50 on CK1ε and on CK1δ was 0.01 to 10 nM in each case.

Values taken from patent US9598423B2 (BRISTOL-MYERS SQUIBB COMPANY, priority 2013, dated 2017).
